Results reported in patent US5008401A, “Cyanine compounds” (Asahi Chemical Co., Ltd., priority 1990, dated 1991).

Tests used:
[1] = Test for solubility in solvent; type: physicochemical; conditions: for Solubility: methanol, room temperature
Method: Each of cyanine dyes as shown below in Table 2 was dissolved in methanol and the solubility was determined at room temperature with the results indicated below in Table 2.

[2] = Absorption maximum (λmax) and molar absorptivity (ε) in solution; type: physicochemical

Row | Solubility [1] | ε ([2]; diacetone alcohol) | λmax ([2]; diacetone alcohol) | SMILES | further results
1 | up to 10 g/1 |  |  | CCOc1ccc2c(c1)C(C)(C)C(=CC=CC=CC=CC1=[N+](C)c3ccc(OCC)cc3C1(C)C)N2C [Compound A, reference compound] | solubility in solvents (in words) [1]: does not exhibit good solubility in solvents
2 | up to 10 g/1 |  |  | CCOc1ccc2c(c1)C(C)(C)C(=CC=CC=CC1=[N+](C)c3ccc(OCC)cc3C1(C)C)N2C [Compound B, reference compound] | solubility in solvents (in words) [1]: not satisfactory in solubility in solvents
3 | 30 g/1 |  |  | CCN1C(=CC=CC=CC2=[N+](CC)c3c(OC)cc(OC)cc3C2(C)C)C(C)(C)c2cc(OC)cc(OC)c21 [Preparation Example 1] | 
4 |  |  |  | CCOc1cc(OCC)c2c(c1)C(C)(C)C(=CC=CC=CC1=[N+](CC)c3c(OCC)cc(OCC)cc3C1(C)C)N2CC [Preparation Example 2] | ε ([2]; dichloromethane): 1.72×10^5 cm^-; λmax ([2]; dichloromethane): 698 nm
5 | at least 30 g/1 | 160000 cm⁻¹ | 702 nm | COCN1C(=CC=CC=CC2=[N+](COC)c3cc(OC)c(OC)cc3C2(C)C)C(C)(C)c2cc(OC)c(OC)cc21 [Preparation Example 3] | 
6 |  | 184000 cm⁻¹ | 679 nm | COc1cc(C)c2c(c1)C(C)(C)C(=CC=CC=CC1=[N+](CCO)c3c(C)cc(OC)cc3C1(C)C)N2CCO [Preparation Example 4] | 
7 |  | 185000 cm⁻¹ | 679 nm | COCCN1C(=CC=CC=CC2=[N+](CCOC)c3c(C)cc(OC)cc3C2(C)C)C(C)(C)c2cc(OC)cc(C)c21 [Preparation Example 5] | 
8 | at least 30 g/1 | 174000 cm⁻¹ | 683 nm | CCCN1C(=CC=CC=CC2=[N+](CCC)c3cc(C)c(OC)cc3C2(C)C)C(C)(C)c2cc(OC)c(C)cc21 [Preparation Example 6] | 
9 |  |  |  | CCOc1cc(C)c2c(c1)C(C)(C)C(=CC=CC=CC1=[N+](CC)c3c(C)cc(OCC)cc3C1(C)C)N2CC [Preparation Example 7] | ε ([2]; dichloroethane): 1.75×10^5 cm^-; λmax ([2]; dichloroethane): 681 nm
10 |  |  | 683 nm | CCCOc1cc(C)c2c(c1)C(C)(C)C(=CC=CC=CC1=[N+](CC)c3c(C)cc(OCCC)cc3C1(C)C)N2CC [Preparation Example 8] | 
11 |  | 182000 cm⁻¹ | 681 nm | CCc1cc(OC)cc2c1N(CC)C(=CC=CC=CC1=[N+](CC)c3c(CC)cc(OC)cc3C1(C)C)C2(C)C [Preparation Example 9] | 
12 |  | 162000 cm⁻¹ | 681 nm | COc1cc(C(C)C)c2c(c1)C(C)(C)C(=CC=CC=CC1=[N+](C)c3c(C(C)C)cc(OC)cc3C1(C)C)N2C [Preparation Example 10] | 
13 | at least 30 g/1 | 162000 cm⁻¹ | 703 nm | CCCCN1C(=CC=CC=CC2=[N+](CCCC)c3cc(OC)c(OC)cc3C2(C)C)C(C)(C)c2cc(OC)c(OC)cc21 [Preparation Example 11] | 
14 |  |  |  | CCCCN1C(=CC=CC=CC2=[N+](CCCC)c3cc(OC)c(OC)cc3C2(C)C)C(C)(C)c2cc(OC)c(OC)cc21 [Preparation Example 12] | ε ([2]; dichloromethane): 161000 cm⁻¹; λmax ([2]; dichloromethane): 699 nm
15 |  | 175000 cm⁻¹ | 693 nm | COc1cc(OC)c2c(c1)C(C)(C)C(=CC=CC=CC1=[N+](CCOC(C)=O)c3c(OC)cc(OC)cc3C1(C)C)N2CCOC(C)=O [Preparation Example 13] | 
16 | at least 30 g/1 | 180000 cm⁻¹ | 695 nm | COCCN1C(=CC=CC=CC2=[N+](CCOC)c3c(OC)cc(OC)cc3C2(C)C)C(C)(C)c2cc(OC)cc(OC)c21 [Preparation Example 14] | 
